The source of these data is publication PMC8222276 (Communications Biology, 2021).

The target in test [1] is T1, AM1 receptor (CLR-RAMP2) in HUVECs (Homo sapiens, UniProt O60895+Q16602).
T1 construct: HUVECs specifically express the AM1 receptor alone; host or cells: primary HUVECs
Kind of test: cAMP accumulation in HUVECs. The format is cell-based. The note with it: HUVEC; calcitonin receptor agonists. The procedure: (§1) Data are analysed using a three-parameter non-linear regression curve or the operational model of receptor agonism. g–h Signalling bias plots were calculated as ∆Log(τ/KA) (g) or ∆∆Log(τ/KA) (h) for each agonist and for each signalling pathway. […] Solid arrows indicate known pathways. Dashed arrows represent possible pathways.
All primary cell lines were cultured as above. On the day of the experiment media was removed and cells washed with PBS, before being dissociated with Trypsin-EDTA 0.05% (Gibco, UK) and then resuspended in PBS/BSA (0.1%) (Sigma, UK). […] Plates were incubated for a further 60 min (room temperature) and then read on a plate reader (Mithras LB 940 microplate reader (Berthold technologies, Germany)). […]
(§2) All sample sizes were determined, and data analysed, in accordance with the guidelines described by Curtis M et al.[65]. […] Statistical differences were analysed using one-way ANOVA followed by Dunnett’s post-hoc (for comparisons amongst more than two groups) or unpaired Student’s t test with Welch’s correction (for comparison between two groups). […] Having obtained values for τ and KA these were then used to quantify signalling bias as the change in Log(τ/KA)[19],[28]. […]
On the technique in general: Changes in cAMP serve as a functional read-out for many G protein-coupled receptors.

The target in test [2] is T1, AM1 receptor (CLR-RAMP2) in HUVECs. In words: total nitric oxide production in HUVECs. The format is cell-based. The following applies: HUVEC. The procedure: as §1
Endothelial cells and HCMs were cultured as above. 24 h prior to assay cells were plated on Costar 96-well black clear bottom plates at 40,000 cells/well. The assay was performed according to the manufacturer’s protocol. Briefly, cells pre-incubated with NO dye and assay buffer 1 (Fluorometric Nitric Oxide Assay Kit, Abcam, UK) for 30 min at 37 °C in 5% CO2. Any inhibitors requiring 30 min pre-treatment (YM/L-NAME/DMSO control) were added at this point. Ligand stimulation occurred immediately after this for 15 min at 37 °C in 5% CO2. Stain and ligand solution was removed, assay buffer II was added, and wells were read immediately. The absorbance was measured using a Tecan T200 (Thermo Fisher Scientific UK) reader with an excitation/emission of 540/590 nm. Endothelial cell responses were normalised to 10 μM acetylcholine. HCM responses were normalised to 10 μM isoproterenol[63],[64].
(§3) All sample sizes were determined, and data analysed, in accordance with the guidelines described by Curtis M et al.[65]. All experiments were appropriately controlled using ‘system pathway’ agonists. If any of these pathway controls generated inappropriate responses, then the entire data set was removed from analysis. […] Data analysis for cAMP accumulation, Ca^2+i mobilisation, NO accumulation, pERK1/2 activation, and cell proliferation assays were performed in GraphPad Prism 8.4 (GraphPad Software, San Diego). Data were fitted to obtain concentration–response curves using either the three-parameter logistic equation using to obtain values of Emax and pEC50 or the operational model of agonism. Statistical differences were analysed using one-way ANOVA followed by Dunnett’s post-hoc (for comparisons amongst more than two groups) or unpaired Student’s t test with Welch’s correction (for comparison between two groups). To account for the day-to-day variation experienced from the cultured cells, we used the maximal level of cAMP accumulation from cells in response to 100 μM forskolin stimulation was used as a reference, 10 μM ionomycin for Ca^2+i assays, 10 μM phorbol 12-myristate 13-acetate (PMA) for pERK1/2 activation, 10 μM acetylcholine for NO production and 10 μM VEGF for cell proliferation. […] Where appropriate the operational model for receptor agonism[27] was used to obtain efficacy (τ) and equilibrium disassociation constant (KA) values. In both cases, this normalisation removes the variation due to differences in days but retains the variance for control values. The means of individual experiments were combined to generate the curves shown. Having obtained values for τ and KA these were then used to quantify signalling bias as the change in Log(τ/KA)[19],[28]. Error for this composite measure was propagated by applying Eq. 1.1 PooledSEM=(SEMA)^2+(SEMB)^2 Where, SEMA and SEMB are the standard error of measurement A and B.

For test [3] the target is unchanged. In words: mobilisation of Ca2+i in HUVECs. The format is cell-based. The following applies: HUVEC; Gαq/11/14 inhibitor co-treatment, 100 nM. The procedure:
as §1
All cell lines were plated at 20,000 cells/well on 96-well black clear-bottom plates (Costar, UK) 24 h before the experiment. […] Cells were then washed twice with calcium-free HBSS, then were left in 100 μl calcium-free HBSS for the duration of the assay. […] Data was normalised to the response seen with 10 μM Ionomycin.
as §2, with “al.[65]. All experiments were appropriately controlled using ‘system pathway’ agonists. If any of these pathway controls generated inappropriate responses, then the entire data set was removed from analysis.” for “al.[65].”

For test [4] the target is unchanged. Kind of test: antagonism of agonist-induced cAMP accumulation in HUVECs. The format is cell-based. The note with it: HUVEC; 100 nM. The procedure: (§4) All primary cell lines were cultured as above. On the day of the experiment media was removed and cells washed with PBS, before being dissociated with Trypsin-EDTA 0.05% (Gibco, UK) and then resuspended in PBS/BSA (0.1%) (Sigma, UK). Cells were immediately plated for use in cAMP assay as per the manufacturer’s instructions, reagents used were provided by the LANCE® cAMP detection assay kit (PerkinElmer, Boston, MA, USA), in 384 well optiplates (PerkinElmer (Boston, MA, USA)) at 2000 cells/well in 5 μl aliquots. […] Cells were incubated with compound for 30 min prior to adding detection buffer[28],[60]. Plates were incubated for a further 60 min (room temperature) and then read on a plate reader (Mithras LB 940 microplate reader (Berthold technologies, Germany)). All responses were normalised to 100μM forskolin (Tocris, UK). Antagonist studies were performed in the same way through co-stimulation of the relevant concentration. Alongside control-treated cell. Experiments with PTX (Sigma, UK) required pretreatment (16 h) prior to assays.

Test [5] deals with T2, CGRP receptor (CLR-RAMP1) in human cardiomyocytes (HCMs) (Homo sapiens, UniProt O60894+Q16602).
T2 construct: primary human cardiomyocytes (HCMs) since these cells only expressed CLR and RAMP1; host or cells: primary human cardiomyocytes (HCMs)
T2 sequence (Q16602 23-461): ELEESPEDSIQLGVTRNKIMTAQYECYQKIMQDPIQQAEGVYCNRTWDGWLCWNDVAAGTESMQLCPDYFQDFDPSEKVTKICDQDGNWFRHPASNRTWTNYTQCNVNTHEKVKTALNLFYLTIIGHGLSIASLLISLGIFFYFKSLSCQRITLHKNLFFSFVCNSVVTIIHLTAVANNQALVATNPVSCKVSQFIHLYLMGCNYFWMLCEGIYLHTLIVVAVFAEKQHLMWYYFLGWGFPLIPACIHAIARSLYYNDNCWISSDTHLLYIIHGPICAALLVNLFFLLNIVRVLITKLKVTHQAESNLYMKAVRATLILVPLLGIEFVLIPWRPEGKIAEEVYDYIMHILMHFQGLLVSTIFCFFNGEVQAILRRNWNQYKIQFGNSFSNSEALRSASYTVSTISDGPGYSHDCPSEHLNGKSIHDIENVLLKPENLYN
T2 sequence (O60894 27-148): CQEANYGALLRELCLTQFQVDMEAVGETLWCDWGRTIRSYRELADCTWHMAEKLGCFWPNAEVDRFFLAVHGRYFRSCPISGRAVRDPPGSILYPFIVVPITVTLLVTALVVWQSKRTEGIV
In words: antagonism of agonist-induced cAMP accumulation in HCMs. The format is cell-based. The following applies: HCM; 100 nM. As to the method:
as §4

The test system of a further test is AM receptors. The following applies: at concentrations of up to 10 micromolar; ref Doods et al., Br. J. Pharmacol., 129, (2000), pp. 420-423; cited from earlier work.
Another test concerns HUVECs. Kind of test: cell proliferation (72 h) of HUVECs. The format is cell-based, human. The following applies: HUVEC, 72 h. The procedure:
as §1
Both endothelial cell lines and HCMs were seeded at a density of 2500 cells/well in a clear flat bottom 96-well plate (Corning, UK) and incubated at 37 °C in 5% CO2. After 24 h, cells were exposed to test compounds or vehicle, in complete endothelial cell growth media (HUVECs) or myocyte growth media (HCMs). Cells were incubated for a further 72 h at 37 °C in 5% CO2. After 72 h incubation, 5 μl of Cell Counting Kit–8 (CCK-8, Sigma, UK) was added to each well and cells were then incubated for another 2 h at 37 °C in 5% CO2 and in the dark[61]. The absorbance of each well was measured using a Mithras LB940 microplate reader with an excitation of 450 nm. The absorbance is directly proportional to the number of viable cells. Cell proliferation was calculated as a percentage of number of cells treated with vehicle alone.
as §3

T1 sequence (Q16602 23-461): as the sequence (Q16602 23-461) above
T1 sequence (O60895 43-175): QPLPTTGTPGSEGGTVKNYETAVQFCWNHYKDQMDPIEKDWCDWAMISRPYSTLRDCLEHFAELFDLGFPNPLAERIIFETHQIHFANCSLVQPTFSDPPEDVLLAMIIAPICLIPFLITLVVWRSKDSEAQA

Regarding “amylin: calcitonin receptor agonist (KCNTATCATQRLANFLVHSSNNFGAILSSTNVGSNTY; Islet amyloid polypeptide; UniProt P10997 34-70, looked up)”, the functional response result in test [1] is recorded as “unable to detect the presence of its transcript (Fig. 1a) or obtain a functional response”.
On to YM-254890, for which the “effect of YM-254890 on NO release” value in test [2] was “abolished all NO release”. The “effect of YM-254890 on Ca2+i responses” value in test [3] is “all responses could be abolished”.
Take `NCCCC[C@H](NC(=O)[C@@H](Cc1cc(Br)c(O)c(Br)c1)NC(=O)N1CCC(N2Cc3ccccc3NC2=O)CC1)C(=O)N1CCN(c2ccncc2)CC1` [olcegepant]: in test [4], the “effect on agonist-induced cAMP accumulation” value is reported as “had little effect”. The “effect on cAMP accumulation for all three agonists” value in test [5] is “inhibit cAMP accumulation for all three agonists”. Further, the “action on AM receptors” value in the test on AM receptors was “no actions on AM receptors”.
Take `C=C[C@@]1(C)CC(=O)[C@]2(O)[C@@]3(C)[C@@H](O)CCC(C)(C)[C@@H]3[C@H](O)[C@H](OC(C)=O)[C@@]2(C)O1` [forskolin]: the “effect of forskolin on cell proliferation” value in the test on HUVECs is on record as “concentration-dependent inhibition of cell proliferation”.
Take calcitonin: calcitonin receptor agonist: the functional response entry in test [1] is recorded as “unable to detect the presence of its transcript (Fig. 1a) or obtain a functional response”.
